Assay results taken from ChEMBL document CHEMBL1125939, “Inhibition of steroid 5-reductase by 3-nitrosteroids: synthesis, mechanism of inhibition, and in vivo activity” (Bioorg Med Chem Lett, 1991).
pKi: −log10 of the molar value.

What was measured:
[1] = biological target: T1, 3-oxo-5-alpha-steroid 4-dehydrogenase 2 (Homo sapiens, UniProt P31213); test: Compound was tested for inhibitory activity against human prostatic Steroid 5-alpha-reductase at 5 uM concentration; NS - No significant inhibition.
T1 sequence (P31213 whole entry): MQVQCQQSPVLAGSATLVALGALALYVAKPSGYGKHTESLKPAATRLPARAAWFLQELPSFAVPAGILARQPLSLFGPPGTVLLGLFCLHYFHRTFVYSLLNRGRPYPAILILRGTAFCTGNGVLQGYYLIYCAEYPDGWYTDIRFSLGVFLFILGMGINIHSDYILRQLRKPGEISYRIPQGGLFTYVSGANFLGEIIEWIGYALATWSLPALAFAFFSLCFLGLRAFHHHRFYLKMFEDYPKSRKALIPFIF

[2] = biological target: T1, 3-oxo-5-alpha-steroid 4-dehydrogenase 2; test: Compound was tested for inhibitory activity against human prostatic Steroid 5-alpha-reductase; settings: read-out: Ki app
[3] = Compound was tested for in vitro inhibitory activity against cynomolgus monkey Steroid 5-alpha-reductase; parameters: species or system Cercopithecidae

| SMILES | Ki app [1] | pKi [2] | pKi [3] |
| --- | --- | --- | --- |
| CC(C)N(C(=O)[C@H]1CC[C@H]2[C@@H]3CCc4cc([N+](=O)[O-])ccc4[C@H]3CC[C@]12C)C(C)C | Not Active | – | – |
| CC(C)N(C(=O)[C@H]1CCC2C3CC=C4C=C([N+](=O)[O-])CC[C@]4(C)C3CC[C@@]21C)C(C)C (stereo partly specified) | – | 6.23 | – |
| CC(C)N(C(=O)[C@H]1CCC2C3CC[C@H]4C=C([N+](=O)[O-])CC[C@]4(C)C3CC[C@@]21C)C(C)C (stereo partly specified) | – | 7.30 | > 9.00 |
| CC(C)N(C(=O)[C@H]1CCC2C3CC=C4C=C(C(=O)O)CC[C@]4(C)C3CC[C@@]21C)C(C)C (stereo partly specified) | – | – | 8.40 |
| CC(C)N(C(=O)[C@H]1CC[C@H]2[C@@H]3CCc4cc(C(=O)O)ccc4[C@H]3CC[C@]12C)C(C)C | – | 7.70 | – |
